According to US20050164370A1 (priority 2003, published 2005):

Assays:
cytokinin receptor AHK2 = target: T1, cytokinin receptor AHK2 (Arabidopsis thaliana, UniProt Q9C5U2); assay: Agonist-activity to cytokinin receptor, optical density of TM182-AHK2 liquid culture; assay type: cell-based, yeast; parameters: expressed in transfected cells; host or cells: yeast strain TM182 carrying plasmid p415CYC-AHK2 (pHM-1 backbone, CYC1 promoter); settings: TM182-AHK2, examinee substance 100 μM, DOLU+Glu, 30° C. for 24 hours
T1 sequence (Q9C5U2 1-1176): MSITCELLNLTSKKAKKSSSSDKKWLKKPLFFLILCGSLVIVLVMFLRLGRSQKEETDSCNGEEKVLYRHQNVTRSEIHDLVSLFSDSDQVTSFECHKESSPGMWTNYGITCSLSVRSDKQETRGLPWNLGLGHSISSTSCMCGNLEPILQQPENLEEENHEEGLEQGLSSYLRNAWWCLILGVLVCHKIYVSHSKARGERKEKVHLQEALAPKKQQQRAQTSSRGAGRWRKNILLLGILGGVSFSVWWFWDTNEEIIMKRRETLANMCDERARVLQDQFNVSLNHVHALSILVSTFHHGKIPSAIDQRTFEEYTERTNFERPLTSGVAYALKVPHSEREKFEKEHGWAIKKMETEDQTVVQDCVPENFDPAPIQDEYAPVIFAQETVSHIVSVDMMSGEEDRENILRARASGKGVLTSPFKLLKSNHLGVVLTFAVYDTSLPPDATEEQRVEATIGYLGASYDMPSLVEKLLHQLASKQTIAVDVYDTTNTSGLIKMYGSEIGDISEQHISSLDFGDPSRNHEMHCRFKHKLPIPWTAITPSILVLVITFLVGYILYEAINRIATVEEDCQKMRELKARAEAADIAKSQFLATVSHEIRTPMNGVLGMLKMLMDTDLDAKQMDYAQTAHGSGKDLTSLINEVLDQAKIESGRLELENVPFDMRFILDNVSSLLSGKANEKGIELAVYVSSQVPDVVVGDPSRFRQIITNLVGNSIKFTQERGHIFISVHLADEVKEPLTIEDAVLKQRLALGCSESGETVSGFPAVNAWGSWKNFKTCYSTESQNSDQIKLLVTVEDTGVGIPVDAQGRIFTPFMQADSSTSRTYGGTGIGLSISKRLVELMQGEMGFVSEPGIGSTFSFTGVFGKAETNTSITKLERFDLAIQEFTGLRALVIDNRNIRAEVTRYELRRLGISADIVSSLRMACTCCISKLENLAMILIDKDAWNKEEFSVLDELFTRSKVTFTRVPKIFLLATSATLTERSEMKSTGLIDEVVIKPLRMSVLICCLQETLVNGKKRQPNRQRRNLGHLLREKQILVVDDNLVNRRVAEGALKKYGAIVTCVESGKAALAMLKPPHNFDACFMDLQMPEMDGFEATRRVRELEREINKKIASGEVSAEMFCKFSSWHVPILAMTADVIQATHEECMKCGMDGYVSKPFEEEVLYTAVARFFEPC
Experimental: (§1) The transformed cells TM182-AHK2, TM182-AHK2Δ and TM182-AHK3 produced in the reference example 1 were inoculated in 200 ml of DOLU+Gal culture media and pre-cultured at 30° C. for 36 hours. The pre-cultured solutions were diluted with DOLU+Glu media as to become 0.100 as the optical density (OD600) and further the resultants were diluted with DOLU+Glu media at a dilution rate of 1/200 to obtain diluted pre-cultured solutions.
(§2) An assay plate was prepared by filling respective wells of a 96-well plate with 20 μl of solutions which were prepared by diluting DMSO solution (10 mM) of each examinee substance with DOLU+Glu medium at a dilution rate of 1/100, said solutions containing each examinee substance to be […]. […]
(§3) The diluted pre-cultured solutions were added in 200 μl each into the respective wells of both assay plates and cultured at 30° C. for 24 hours and then the optical density (OD620) of each well was measured by a plate reader. The agonist-activity of the examinee substances to the cytokinin receptor was detected by comparing the optical density measured in the testing sections to which the examinee substances were added with the optical density measured in the blank sections.

cytokinin receptor AHK3 = target: T2, cytokinin receptor AHK3 (Arabidopsis thaliana, UniProt Q9C5U1); assay: Agonist-activity to cytokinin receptor, optical density of TM182-AHK3 liquid culture; assay type: cell-based, yeast; parameters: expressed in transfected cells; host or cells: yeast strain TM182 carrying plasmid p415CYC-AHK3 (pHM-1 backbone, CYC1 promoter); settings: TM182-AHK3, examinee substance 100 μM, DOLU+Glu, 30° C. for 24 hours
T2 sequence (Q9C5U1 1-1036): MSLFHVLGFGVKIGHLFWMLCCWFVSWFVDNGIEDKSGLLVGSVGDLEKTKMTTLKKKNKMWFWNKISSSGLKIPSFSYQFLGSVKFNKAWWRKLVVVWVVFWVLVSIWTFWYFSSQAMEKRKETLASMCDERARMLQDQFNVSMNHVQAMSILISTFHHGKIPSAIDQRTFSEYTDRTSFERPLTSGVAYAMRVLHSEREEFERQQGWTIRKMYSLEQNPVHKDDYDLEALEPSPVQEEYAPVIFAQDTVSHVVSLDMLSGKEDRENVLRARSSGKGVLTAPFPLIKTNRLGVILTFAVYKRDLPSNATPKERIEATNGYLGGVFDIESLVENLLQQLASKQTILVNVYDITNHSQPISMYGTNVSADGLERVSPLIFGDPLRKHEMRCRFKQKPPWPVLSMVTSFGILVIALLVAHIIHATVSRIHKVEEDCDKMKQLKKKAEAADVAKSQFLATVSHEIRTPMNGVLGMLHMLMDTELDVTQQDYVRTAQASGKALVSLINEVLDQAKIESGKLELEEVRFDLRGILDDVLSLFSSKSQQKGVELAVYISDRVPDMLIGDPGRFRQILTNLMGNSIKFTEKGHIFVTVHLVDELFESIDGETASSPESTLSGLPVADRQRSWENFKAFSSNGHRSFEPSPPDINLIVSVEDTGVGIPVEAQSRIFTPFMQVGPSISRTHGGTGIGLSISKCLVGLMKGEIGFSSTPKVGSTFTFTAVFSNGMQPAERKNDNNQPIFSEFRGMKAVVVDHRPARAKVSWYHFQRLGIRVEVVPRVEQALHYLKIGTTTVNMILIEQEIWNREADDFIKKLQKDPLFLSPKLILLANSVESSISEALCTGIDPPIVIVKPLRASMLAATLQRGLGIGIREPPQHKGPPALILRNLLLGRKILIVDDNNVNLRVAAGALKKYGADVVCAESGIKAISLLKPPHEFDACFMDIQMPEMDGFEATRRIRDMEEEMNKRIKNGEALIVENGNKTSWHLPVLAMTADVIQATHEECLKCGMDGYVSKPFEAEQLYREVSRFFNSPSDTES
Experimental: as §1, §2, §3

| SMILES | optical density (OD620) of the culture solution (cytokinin receptor AHK2) | optical density (OD620) of the culture solution (cytokinin receptor AHK3) |
| --- | --- | --- |
| CC1=CC(=O)CC(C)(C)[C@@]1(O)/C=C/C(C)=C\C(=O)O [Compound A, Abscisic acid] | 0.01 | 0.54 |
| c1ccc(CNc2ncnc3nc[nH]c23)cc1 [Compound B, 6-Benzyl aminopurine] | 0.45 | 0.88 |
